Molecules are shown by their SMILES.

T1 sequence (Q07343 whole entry): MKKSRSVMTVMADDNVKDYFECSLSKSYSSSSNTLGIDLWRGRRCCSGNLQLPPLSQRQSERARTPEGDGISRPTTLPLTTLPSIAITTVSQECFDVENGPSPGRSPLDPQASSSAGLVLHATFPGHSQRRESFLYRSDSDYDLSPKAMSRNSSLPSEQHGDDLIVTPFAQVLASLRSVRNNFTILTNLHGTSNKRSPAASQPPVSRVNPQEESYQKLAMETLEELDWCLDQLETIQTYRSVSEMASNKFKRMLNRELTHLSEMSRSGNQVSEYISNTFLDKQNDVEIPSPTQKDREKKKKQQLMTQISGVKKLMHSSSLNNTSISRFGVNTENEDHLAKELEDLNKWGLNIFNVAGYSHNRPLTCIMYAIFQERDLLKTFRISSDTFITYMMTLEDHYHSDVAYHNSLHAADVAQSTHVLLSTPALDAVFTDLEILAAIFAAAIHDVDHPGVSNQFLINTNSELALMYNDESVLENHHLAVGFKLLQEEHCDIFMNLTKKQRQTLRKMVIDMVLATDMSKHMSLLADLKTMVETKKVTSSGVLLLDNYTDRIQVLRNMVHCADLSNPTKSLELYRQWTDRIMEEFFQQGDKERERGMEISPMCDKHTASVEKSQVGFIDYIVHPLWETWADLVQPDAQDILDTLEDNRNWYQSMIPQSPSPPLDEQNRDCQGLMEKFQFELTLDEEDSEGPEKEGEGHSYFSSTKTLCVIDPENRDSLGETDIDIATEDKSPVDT

One assay addresses T1, human PDE4B1 (Homo sapiens, UniProt Q07343).
T1 construct: host or cells: Sf9 cells
As to the kind of experiment: cAMP HTRF assay to determine the activity of hPDE4B1. It is filed as biochemical. Particulars: inhibition of PDE4B at a test concentration of 1 μM. In outline: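 […], using HTRF quantitation of residual cAMP after 1 mM IBMX stop and 60 min detection. Enzyme was Sf9-expressed human PDE4B1 incubated 30 min at room temperature with 40 nM final cAMP at pH 7.8.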
(In TR-FRET formats the signal depends on donor and acceptor labels being close together.)
As to `C[S+]([O-])c1cn(-c2ncc(-c3ccccc3F)cn2)c2cc(C(=O)N3CCC3)ccc12` (stereo not drawn) [Example 355, Azetidin-1-yl(1-(5-(2-fluorophenyl)pyrimidin-2-yl)-3-(methylsulfinyl)-1H-indol-6-yl)methanone], the inhibition (in general, the change of the read-out against control, counted positive when it falls) at 1 µM turned out to be 77%. On the same count and under the same terms, the value for `CCN(C)C(=O)c1ccc2c([S+](C)[O-])cn(-c3ncc(-c4ccccc4F)cn3)c2c1` (stereo not drawn) [Example 356, N-Ethyl-1-(5-(2-fluorophenyl)pyrimidin-2-yl)-N-methyl-3-(methylsulfinyl)-1H-indole-6-carboxamide] was 96%; that for `CCN(CC)C(=O)c1ccc2c([S+](C)[O-])cn(-c3ncc(-c4ccccc4F)cn3)c2c1` (stereo not drawn) [Example 357, N,N-Diethyl-1-(5-(2-fluorophenyl)pyrimidin-2-yl)-3-(methylsulfinyl)-1H-indole-6-carboxamide] was 107%; that for `C[S+]([O-])c1cn(-c2ncc(-c3ccccc3F)cn2)c2cc(C(=O)N3CCCCC3)ccc12` (stereo not drawn) [Example 358, (1-(5-(2-Fluorophenyl)pyrimidin-2-yl)-3-(methylsulfinyl)-1H-indol-6-yl)(piperidin-1-yl)methanone] was 98%. On to `CC1CCCN1C(=O)c1ccc2c([S+](C)[O-])cn(-c3ncc(-c4ccccc4F)cn3)c2c1` (stereo not drawn) [Example 359, (1-(5-(2-Fluorophenyl)pyrimidin-2-yl)-3-(methylsulfinyl)-1H-indol-6-yl)(2-methylpyrrolidin-1-yl)methanone], for which the inhibition at 1 µM came out at 90%. On to `CN(CC1CC1)C(=O)c1ccc2c([S+](C)[O-])cn(-c3ncc(-c4ccccc4F)cn3)c2c1` (stereo not drawn) [Example 360, N-(Cyclopropylmethyl)-1-(5-(2-fluorophenyl)pyrimidin-2-yl)-N-methyl-3-(methylsulfinyl)-1H-indole-6-carboxamide], for which the inhibition at 1 µM is 75%. Still for that read-out and setting: the value for `CC1CCCCN1C(=O)c1ccc2c([S+](C)[O-])cn(-c3ncc(-c4ccccc4F)cn3)c2c1` (stereo not drawn) [Example 361, (1-(5-(2-Fluorophenyl)pyrimidin-2-yl)-3-(methylsulfinyl)-1H-indol-6-yl)(2-methylpiperidin-1-yl)methanone] was 40%; that for `CC1CCCN(C(=O)c2ccc3c([S+](C)[O-])cn(-c4ncc(-c5ccccc5F)cn4)c3c2)C1` (stereo not drawn) [Example 362, (1-(5-(2-Fluorophenyl)pyrimidin-2-yl)-3-(methylsulfinyl)-1H-indol-6-yl)(3-methylpiperidin-1-yl)methanone] was 78%. On to `CC1CCN(C(=O)c2ccc3c([S+](C)[O-])cn(-c4ncc(-c5ccccc5F)cn4)c3c2)CC1` (stereo not drawn) [Example 363, (1-(5-(2-Fluorophenyl)pyrimidin-2-yl)-3-(methylsulfinyl)-1H-indol-6-yl)(4-methylpiperidin-1-yl)methanone], for which the inhibition at 1 µM stood at 41%. For the molecule `C[S+]([O-])c1cn(-c2ncc(-c3ccccc3F)cn2)c2cc(C(=O)N3CCCCCC3)ccc12` (stereo not drawn) [Example 364, Azepan-1-yl(1-(5-(2-fluorophenyl)pyrimidin-2-yl)-3-(methylsulfinyl)-1H-indol-6-yl)methanone], the inhibition at 1 µM came to 73%. Still for that read-out and setting: the value for `CN1CCN(C(=O)c2ccc3c([S+](C)[O-])cn(-c4ncc(-c5ccccc5F)cn4)c3c2)CC1` (stereo not drawn) [Example 365, (1-(5-(2-Fluorophenyl)pyrimidin-2-yl)-3-(methylsulfinyl)-1H-indol-6-yl)(4-methylpiperazin-1-yl)methanone] was 54%; that for `CC(C)N(C(=O)c1ccc2c([S+](C)[O-])cn(-c3ncc(-c4ccccc4F)cn3)c2c1)C(C)C` (stereo not drawn) [Example 366, 1-(5-(2-Fluorophenyl)pyrimidin-2-yl)-N,N-diisopropyl-3-(methylsulfinyl)-1H-indole-6-carboxamide] was 30%. Take `CN(C)CCN(C)C(=O)c1ccc2c([S+](C)[O-])cn(-c3ncc(-c4ccccc4F)cn3)c2c1` (stereo not drawn) [Example 367, N-(2-(Dimethylamino)ethyl)-1-(5-(2-fluorophenyl)pyrimidin-2-yl)-N-methyl-3-(methylsulfinyl)-1H-indole-6-carboxamide]: the inhibition at 1 µM was determined as 40%. The same measure, in the same setting: the value for `C[S+]([O-])c1cn(-c2ncc(-c3ccccc3F)cn2)c2cc(C(=O)N3CCSCC3)ccc12` (stereo not drawn) [Example 368, (1-(5-(2-Fluorophenyl)pyrimidin-2-yl)-3-(methylsulfinyl)-1H-indol-6-yl)(thiomorpholino)methanone] was 103%. As for `CN(CCC(=O)O)C(=O)c1ccc2c([S+](C)[O-])cn(-c3ncc(-c4ccccc4F)cn3)c2c1` (stereo not drawn) [Example 369, 3-(1-(5-(2-Fluorophenyl)pyrimidin-2-yl)-N-methyl-3-(methylsulfinyl)-1H-indole-6-carboxamido)propanoic acid], the inhibition at 1 µM turned out to be 87%. For `C[S+]([O-])c1cn(-c2ncc(-c3ccccc3F)cn2)c2cc(C(=O)N3CCC4(COC4)C3)ccc12` (stereo not drawn) [Example 370, (1-(5-(2-Fluorophenyl)pyrimidin-2-yl)-3-(methylsulfinyl)-1H-indol-6-yl)(2-oxa-6-azaspiro[3.4]octan-6-yl)methanone], the inhibition at 1 µM was determined as 23%. In the case of `CCC1CCCCN1C(=O)c1ccc2c([S+](C)[O-])cn(-c3ncc(-c4ccccc4F)cn3)c2c1` (stereo not drawn) [Example 371, (2-Ehylpiperidin-1-yl)(1-(5-(2-fluorophenyl)pyrimidin-2-yl)-3-(methylsulfinyl)-1H-indol-6-yl)methanone], the inhibition at 1 µM came out at 32%. On to `CN(C)[C@@H]1CCN(C(=O)c2ccc3c([S+](C)[O-])cn(-c4ncc(-c5ccccc5F)cn4)c3c2)C1` (stereo partly drawn) [Example 374, ((R)-3-(Dimethylamino)pyrrolidin-1-yl)(1-(5-(2-fluorophenyl)-pyrimidin-2-yl)-3-(methylsulfinyl)-1H-indol-6-yl)methanone], for which the inhibition at 1 µM amounted to 47%. Take `CCN1CCN(C(=O)c2ccc3c([S+](C)[O-])cn(-c4ncc(-c5ccccc5F)cn4)c3c2)CC1` (stereo not drawn) [Example 375, (4-Ethylpiperazin-1-yl)(1-(5-(2-fluorophenyl)pyrimidin-2-yl)-3-(methylsulfinyl)-1H-indol-6-yl)methanone]: the inhibition at 1 µM stood at 66%. On to `CN1CCCN(C(=O)c2ccc3c([S+](C)[O-])cn(-c4ncc(-c5ccccc5F)cn4)c3c2)CC1` (stereo not drawn) [Example 376, (1-(5-(2-Fluorophenyl)pyrimidin-2-yl)-3-(methylsulfinyl)-1H-indol-6-yl)(4-methyl-1,4-diazepan-1-yl)methanone], for which the inhibition at 1 µM came to 31%. Take `C[S+]([O-])c1cn(-c2ncc(-c3ccccc3F)cn2)c2cc(C(=O)N3CCCCC3CO)ccc12` (stereo not drawn) [Example 379, (1-(5-(2-Fluorophenyl)pyrimidin-2-yl)-3-(methylsulfinyl)-1H-indol-6-yl)(2-(hydroxymethyl)piperidin-1-yl)methanone]: the inhibition at 1 µM stood at 50%. Consider `C[S+]([O-])c1cn(-c2ncc(-c3ccccc3F)cn2)c2cc(C(=O)N3CCC(CO)CC3)ccc12` (stereo not drawn) [Example 380, (1-(5-(2-Fluorophenyl)pyrimidin-2-yl)-3-(methylsulfinyl)-1H-indol-6-yl)(4-(hydroxymethyl)piperidin-1-yl)methanone], for which the inhibition at 1 µM is 9%. Regarding `CN(C(=O)c1ccc2c([S+](C)[O-])cn(-c3ncc(-c4ccccc4F)cn3)c2c1)C1CCOCC1` (stereo not drawn) [Example 382, 1-(5-(2-Fluorophenyl)pyrimidin-2-yl)-N-methyl-3-(methylsulfinyl)-N-(tetrahydro-2H-pyran-4-yl)-1H-indole-6-carboxamide], the inhibition at 1 µM came out at 0%.

As to `C[S+]([O-])c1cn(-c2ncc(-c3ccccc3F)cn2)c2cc(C(=O)N3CCOC(C)(C)C3)ccc12` (stereo not drawn) [Example 383, (2,2-Dimethylmorpholino)(1-(5-(2-fluorophenyl)pyrimidin-2-yl)-3-(methylsulfinyl)-1H-indol-6-yl)methanone], the inhibition at 1 µM turned out to be 68%. Take `C[S+]([O-])c1cn(-c2ncc(-c3ccccc3F)cn2)c2cc(C(=O)N3CCC4(CC3)COC4)ccc12` (stereo not drawn) [Example 384, (1-(5-(2-Fluorophenyl)pyrimidin-2-yl)-3-(methylsulfinyl)-1H-indol-6-yl)(2-oxa-7-azaspiro[3.5]nonan-7-yl)methanone]: the inhibition at 1 µM was 3%. With `CC(=O)N1CCN(C(=O)c2ccc3c([S+](C)[O-])cn(-c4ncc(-c5ccccc5F)cn4)c3c2)CC1` (stereo not drawn) [Example 385, 1-(4-(1-(5-(2-Fluorophenyl)pyrimidin-2-yl)-3-(methylsulfinyl)-1H-indole-6-carbonyl)piperazin-1-yl)ethanone], the inhibition at 1 µM stood at 0%.

Turning to `CC(C)N1CCN(C(=O)c2ccc3c([S+](C)[O-])cn(-c4ncc(-c5ccccc5F)cn4)c3c2)CC1` (stereo not drawn) [Example 386, (1-(5-(2-Fluorophenyl)pyrimidin-2-yl)-3-(methylsulfinyl)-1H-indol-6-yl)(4-isopropylpiperazin-1-yl)methanone], the inhibition at 1 µM amounted to 6%. For the molecule `CN(C)C1CCN(C(=O)c2ccc3c([S+](C)[O-])cn(-c4ncc(-c5ccccc5F)cn4)c3c2)CC1` (stereo not drawn) [Example 387, (4-(Dimethylamino)piperidin-1-yl)(1-(5-(2-fluorophenyl)pyrimidin-2-yl)-3-(methylsulfinyl)-1H-indol-6-yl)methanone], the inhibition at 1 µM was 8%. Same read-out and setting: the value for `COC(=O)C1CCN(C(=O)c2ccc3c([S+](C)[O-])cn(-c4ncc(-c5ccccc5F)cn4)c3c2)C1` (stereo not drawn) [Example 388, Methyl 1-(1-(5-(2-fluorophenyl)pyrimidin-2-yl)-3-(methylsulfinyl)-1H-indole-6-carbonyl)pyrrolidine-3-carboxylate] was 45%.

The assay is the same for the next values; noted with them: inhibition of PDE4B at a test concentration of 1 μM, 1 µM.
Molecule `COC1CCN(C(=O)c2ccc3c([S+](C)[O-])cn(-c4ncc(-c5ccccc5F)cn4)c3c2)CC1` (stereo not drawn) [Example 381, (1-(5-(2-Fluorophenyl)pyrimidin-2-yl)-3-(methylsulfinyl)-1H-indol-6-yl)(4-methoxypiperidin-1-yl)methanone] yielded an Inhibition in % of 12%.

(Values after US9315490B2, “2,5-substituted pyrimidines” (Grünenthal GmbH, priority 2014, dated 2016).)
